Experimental data from US7566731B2, “Hetaryl substituted homotetramic and homotetronic acids and their use thereof as pesticides” (Bayer CropScience AG, priority 2001, dated 2009).

Experiments:
Type in all cases: in vivo
[1] = system: larvae of the mustard beetle (Phaedon cochleariae); test: Phaedon larvae test; conditions: after 7 days, cabbage leaves immersed
Protocol: (§1) To prepare a suitable active compound preparation, 1 part by weight of active compound is mixed with the stated amounts of solvent and emulsifier and the concentrate is diluted to the desired concentration with emulsifier-containing water. Cabbage leaves (Brassica oleracea) are treated by immersing in the active compound preparation of the desired concentration and populated with larvae of the mustard beetle (Phaedon cochleariae) while the leaves are still moist. After the desired time, the destruction rate is determined in %. 100% means that all the beetle larvae have been destroyed; 0% means that none of the beetle larvae have been destroyed.

[2] = system: two-spotted spider mite (Tetranychus urticae); test: Tetranychus test (OP resistant/immersion treatment); conditions: 100 ppm; bean plants immersed
Protocol: To prepare a suitable active compound preparation, 1 part by weight of active compound is mixed with the stated amounts of solvent and emulsifier and the concentrate is diluted to the desired concentration with emulsifier-containing water. Bean plants (Phaseolus vulgaris) which are severely infested by all stages of the two-spotted spider mite (Tetranychus urticae) are immersed into an active compound preparation of the desired concentration. After the desired time, the efficacy is determined in %. 100% means that all of the spider mites have been destroyed; 0% means that none of the spider mites have been destroyed.

Meloidogyne incognita = test: Meloidogyne test; conditions: active compound concentration 20 ppm; lettuce in sand
Protocol: To prepare a suitable active compound preparation, 1 part by weight of active compound is mixed with the stated amounts of solvent and emulsifier and the concentrate is diluted to the desired concentration with water. Containers are filled with sand, active compound solution, Meloidogyne incognita egg/larval suspension and lettuce seeds. The lettuce seeds germinate and the plantlets develop. The galls develop on the roots. After the desired time, the nematicidal efficacy is determined in % with reference to gall formation. 100% means that no galls were found; 0% means that the number of galls on the treated plants corresponds to that of the untreated control.

[3] = system: green peach aphid (Myzus persicae); test: Myzus test; conditions: 500 ppm; after 6 days; cabbage leaves immersed
Protocol: To prepare a suitable active compound preparation, 1 part by weight of active compound is mixed with the stated amounts of solvent and emulsifier and the concentrate is diluted to the desired concentration with emulsifier-containing water. Cabbage leaves (Brassica oleracea) which are severely infested by the green peach aphid (Myzus persicae) are treated by immersing into the active compound preparation of the desired concentration. After the desired time, the destruction rate is determined in %. 100% means that all of the aphids have been destroyed; 0% means that none of the aphids have been destroyed.

[4] = system: fall armyworm caterpillars (Spodoptera frugiperda); test: Spodoptera frugiperda test; conditions: 500 ppm; after 7 days; cabbage leaves immersed
Protocol: as §1, with “fall armyworm caterpillars (Spodoptera frugiperda)” for “mustard beetle (Phaedon cochleariae)”, “caterpillars” for “beetle larvae”

Sugar beet [5] = test: Pre-emergence test, Sugar beet; conditions: 125 g ai/ha, after three weeks
Protocol: (§2) To prepare a suitable active compound preparation, 1 part by weight of active compound is mixed with the stated amount of solvent, the stated amount of emulsifier is added, and the concentrate is diluted with water to the desired concentration. Seeds of the test plants are sown in normal soil. After approximately 24 hours, the soil is sprayed with the active compound preparation in such a way that the active compound quantities desired in each case are applied per unit area. The concentration of the spray mixture is chosen such that the active compound quantities desired in each case are applied in 1000 l of water/ha. After three weeks, the degree of damage to the plants is scored in % damage in comparison with the development of the untreated control. The figures denote: • 0%=no effect (like untreated control) • 100%=total destruction

Digitaria [6] = test: Pre-emergence test, Digitaria; conditions: 125 g ai/ha, after three weeks
Protocol: as §2

Lolium = test: Pre-emergence test, Lolium; conditions: 125 g ai/ha, after three weeks
Protocol: as §2

Setaria [7] = test: Pre-emergence test, Setaria; conditions: 125 g ai/ha, after three weeks
Protocol: as §2

Matricaria = test: Pre-emergence test, Matricaria; conditions: 125 g ai/ha, after three weeks
Protocol: as §2

Wheat = test: Post-emergence test, Wheat; conditions: 125 g ai/ha, after three weeks
Protocol: as §2, with “Test plants which have a height” for “Seeds”, “5 to 15 cm” for “the test plants”, “are” for “are sown in normal soil. After approximately 24 hours, the soil is”

Sugar beet [8] = test: Post-emergence test, Sugar beet; conditions: 125 g ai/ha, after three weeks
Protocol: as §2, with “Test plants which have a height” for “Seeds”, “5 to 15 cm” for “the test plants”, “are” for “are sown in normal soil. After approximately 24 hours, the soil is”

Alopecurus = test: Post-emergence test, Alopecurus; conditions: 125 g ai/ha, after three weeks
Protocol: as §2, with “Test plants which have a height” for “Seeds”, “5 to 15 cm” for “the test plants”, “are” for “are sown in normal soil. After approximately 24 hours, the soil is”

Avena fatua = test: Post-emergence test, Avena fatua; conditions: 125 g ai/ha, after three weeks
Protocol: as §2, with “Test plants which have a height” for “Seeds”, “5 to 15 cm” for “the test plants”, “are” for “are sown in normal soil. After approximately 24 hours, the soil is”

Digitaria [9] = test: Post-emergence test, Digitaria; conditions: 125 g ai/ha, after three weeks
Protocol: as §2, with “Test plants which have a height” for “Seeds”, “5 to 15 cm” for “the test plants”, “are” for “are sown in normal soil. After approximately 24 hours, the soil is”

Setaria [10] = test: Post-emergence test, Setaria; conditions: 125 g ai/ha, after three weeks
Protocol: as §2, with “Test plants which have a height” for “Seeds”, “5 to 15 cm” for “the test plants”, “are” for “are sown in normal soil. After approximately 24 hours, the soil is”

SMILES	destruction rate ([1]; 1000 ppm)	destruction rate (efficacy) [2]	destruction rate (nematicidal efficacy with reference to gall formation) (Meloidogyne incognita)	destruction rate [3]	destruction rate ([1]; 500 ppm)	destruction rate [4]	degree of damage to the plants (% damage), Sugar beet (Sugar beet [5])	degree of damage to the plants (% damage), Digitaria (Digitaria [6])	degree of damage to the plants (% damage), Lolium (Lolium)	degree of damage to the plants (% damage), Setaria (Setaria [7])	degree of damage to the plants (% damage), Matricaria (Matricaria)	degree of damage to the plants (% damage), Wheat (Wheat)	degree of damage to the plants (% damage), Sugar beet (Sugar beet [8])	degree of damage to the plants (% damage), Alopecurus (Alopecurus)	degree of damage to the plants (% damage), Avena fatua (Avena fatua)	degree of damage to the plants (% damage), Digitaria (Digitaria [9])	degree of damage to the plants (% damage), Setaria (Setaria [10])
Cc1sc(-c2ccc(Cl)cc2)nc1C1=C(O)CC(C)(C)NC1=O [Example I-1-a-1]	100%	98%															
CCOC(=O)OC1=C(c2nc(-c3ccc(Cl)cc3)sc2C)C(=O)NC(C)(C)C1 [Example I-1-c-1]			100%														
Cc1sc(-c2ccc(Cl)cc2)nc1C1=C(O)C(C)(C)C(C)(C)OC1=O [Example I-2-a-1]		100%	100%	90%	100%	100%	0%	100%	100%	100%	95%	10%	0%	90%	90%	95%	100%
